Reference: patent US20260240880A1, “AGENT FOR AMELIORATING OR TREATING DEMENTIA, PRIMARILY ALZHEIMER'S DEMENTIA” (HOMO C[…] AND DEVELOPMENT INSTITUTE, priority 2023, published 2026)
Entries after “also recorded” stand apart in the source; their conditions may differ.

Legend:
[1] = Body weight measurement once a week during 24 weeks of daily administration; assay type: in vivo, mouse; parameters: Weight change / Weight change (average): unit not given here; conditions: APPosk mice; for Weight loss after 24 weeks of daily administration: i.p. once daily, 0.9 or 1.8 mg/kg; for Weight change: range
Source text: (§1) Sixty-eight APPosk (SPF) male mice were produced according to the method described in Tomiyama T., Nagata T., Shimada H., Teraoka R., Fukushima A., Kanemitsu H., Takuma H., Kuwano R., Imagawa M., Ataka S., Wada Y., Yoshioka E., Nishizaki T., Watanabe Y., Mori H. A new amyloid β variant favoring oligomerization in Alzheimer's-type dementia. Ann. Neurol. 63, 377-387 (2008) at BioSafety Research Center Inc. (BSRC), which has a track record in producing model mice, and were raised until 24 weeks of age. These mice were then delivered to New Drug Research Center, Inc. and acclimatized until the preliminary breeding period. Note that quarantine was carried out from the date of arrival, considered as Day 0, up to Day 7. General observations were made daily, and body weights were measured on Day 1 (the day following the arrival), Day 3, and Day 7 after the arrival. Each individual was placed in a polysulfone cage and kept in an animal breeding room under conditions of a temperature of 22° C.±3° C., a humidity of 50%±20%, and a 12-hour light/dark cycle.
(§2) Of the 16 wild-type mice that arrived, 10 with weights close to the average were selected to form the normal group. Sixty-eight APPosk mice were delivered and assigned by stratified continuous randomization to the following groups: Pathological; Pathological+2ccPA (L); Pathological+2ccPA (H); Pathological+2cLPA (L); and Pathological+2cLPA (H). L: Low dose (0.9 mg/kg); H: High dose (1.8 mg/kg)
(§3) The dosing solution was filled into a syringe (disposable syringe) equipped with a 26G needle, and administered intraperitoneally once daily for 168 days (24 weeks). On the day when the Morris water maze test was performed, the dosing solution was administered after the Morris water maze test.
Body weight was measured using an electronic balance once a week. Each time, the measurement was carried out twice at different times.

[2] = test system: tau protein and phosphorylated tau protein; assay: Quantitative determination of tau protein and phosphorylated tau protein (immunostaining of brain sections); assay type: in vivo, mouse; conditions: for Suppression of phosphorylation of tau protein: APPosk mice, low dose; for Phosphorylated tau (Ser396) area/Hippocampus area (average) / Phosphorylated tau (Ser404) area/Hippocampus area (average) / Tau protein area/Hippocampus area (average) / Phosphorylated tau (Ser396) area/Hippocampus area / Phosphorylated tau (Ser404) area/Hippocampus area / Tau protein area/Hippocampus area: APPosk-Tg mice, low dose (L) 0.9 mg/kg; for Phosphorylated tau (Ser396) area/Hippocampus area / Phosphorylated tau (Ser404) area/Hippocampus area / Tau protein area/Hippocampus area: range; for Tau protein area/Hippocampus area: five sections
Source text: After exsanguination, 6 of the 10 individuals in each group (with numbers ending in 1 to 6) were perfused with phosphate-buffered saline (PBS) and then perfused again with 4% paraformaldehyde (PFA) to fix the brains, after which the brains were removed. The extracted brains were then infiltrated and fixed using the same fixative solution. The remaining four individuals in each group (with numbers ending in 7 to 10) were perfused whole body with PBS, and then their brains were extracted and frozen using liquid nitrogen.
Serial sections (thickness: 40 μm) of fixed mouse […] were prepared using a cryostat. The sections were incubated overnight with primary antibodies and then for 1 hour with secondary antibodies. Stained images were then captured using a confocal microscope (Carl Zeiss) and quantified using NIH ImageJ. The primary antibodies used were non-phosphorylated tau antibody (Invitrogen), phosphorylated tau (Ser396) antibody (Invitrogen), and phosphorylated tau (Ser404) antibody (Invitrogen), and the secondary antibodies used were biotinylated goat anti-mouse IgG antibody (Vector Lab.) and biotinylated goat anti-rabbit IgG antibody (Vector Lab.). Quantitative determination was carried out using five sections each.
Quantitative determination of tau protein and phosphorylated tau protein in the hippocampus of normal, pathological, pathological+2ccPA (low dose), and pathological+2cLPA (low dose) mice

[3] = test system: Alzheimer's dementia model mouse (APPosk); assay: Morris water maze test (escape latency); assay type: in vivo; conditions: APPosk mice; for Memory improvement effect in the Morris water maze test: i.p. once daily for 168 days (24 weeks), tested at 48 weeks of age; for Memory effect in the Morris water maze test at low dose: low dose 0.9 mg/kg i.p. once daily for 24 weeks
Source text: as §1, §2, §3
When the mice reached 12 months of age (48 weeks of age), the Morris water maze test was performed.
The water maze (diameter: 90 cm; height: 60 cm; water temperature: approximately 22° C.) was made opaque with a white non-toxic paint (skim milk) and divided into four virtual quadrants (east, west, north, and south). A circular platform having a diameter of 8 cm was submerged approximately 1 cm below the water surface and placed near the center of the north quadrant. Black markers were placed on the walls of the water maze as extramaze cues.
The time it took to reach the platform placed in the water maze (escape latency) was measured over 4 days. Each animal underwent five consecutive trials, with an interval of approximately 20 seconds between the end and start of each trial.
Each trial began with the mouse being placed in any quadrant except the north quadrant, with its face facing the outer edge of the water maze. A webcam (Logicool HD Webcam C615) and SMART v3.0 (Panlab Harvard Apparatus) were used for measurement and analysis. […]

[4] = In vivo hippocampal microdialysis with LC/MS determination of 2ccPA (blood-brain barrier crossing); parameters: species or system mouse; conditions: 0.9 mg/kg i.p.; for 2ccPA concentration in microdialysis recovery fluid: hippocampus
Method: To confirm that 2ccPA crosses the blood-brain barrier (BBB) and enters the brain, an experiment was conducted at the Kurume Modality Analysis Laboratory of BioSafety Research Center Inc. (BSRC), which has a long track record in microdialysis, and the Institute for Disease Modeling, Kurume University School of Medicine.
2ccPA was administered intraperitoneally to 33-week-old male C57BL/6J-Aged mice (SPF, Jackson Laboratory Japan, Inc.) with a dialysis probe (FX-I-4-02, EICOM) placed in the hippocampus of the mouse brain. After that, the brain microdialysis perfusate was collected at […], 1 hour before administration and every 30 minutes (0.5 to 5.0 hours) after administration, using the in vivo microdialysis method.
The hippocampal guide cannula placement surgery was performed under isoflurane anesthesia, with a guide cannula and a dummy cannula placed at the hippocampal coordinate position (AP=−3.1 mm; ML=+2.7 mm; DV=−3.7 mm). After surgery, Vetorphale was administered subcutaneously for analgesia. Three to five days after the cannula was placed, the cannula was replaced with a dialysis probe under isoflurane inhalation anesthesia, and pre-perfusion (perfusion solution: saline containing 0.15% BSA) was then initiated.
2ccPA administration was performed under isoflurane anesthesia. D-PBS(−) containing 0.1% BSA was added to […], and the mixture was dispersed by ultrasonic treatment, thereby preparing a dosing solution.
The dosing solution was diluted with D-PBS(−) containing 0.1% BSA to a concentration of 0.9 mg/kg/day, and then sonicated individually just immediately administration. The administration route was intraperitoneal administration.
The microdialysis perfusate was collected at 11 time points: 1 hour before administration and 0.5, 1.0, 1.5, 2.0, 2.5, 3.0, 3.5, 4.0, 4.5, and 5.0 hours after administration, and each was collected into ice-cooled siliconized tubes.
Five mice in each test group underwent hippocampal cannula placement surgery, replacement with a dialysis probe, administration of the test substance, and collection of the microdialysis perfusate. The collected solution was added to an ice-cold acid-methanol solution (pH 4), stirred, and then promptly frozen in liquid nitrogen and stored at −80° C.
The concentration of 2ccPA in the perfusate collected by microdialysis from mice administered with 2ccPA was measured using LC/MS. The conditions are as follows: Shimizu Y., Fukasawa K., Yamamoto S., Shibike Y., Tsukahara R., Ishikawa M., Iwasa K., Yoshikawa K., Gotoh M., Murakami-Murofushi K. Evaluation of the pharmacokinetics of 2-carba-cyclic phosphatidic acid by liquid chromatography-triple quadrupole mass spectrometry
The standard solution for the calibration curve was prepared by adding ethanol to the standard substance, 2ccPA, dissolving it, and then mixing it with the blank matrix. The internal standard solution (IStd) was prepared by adding ultrapure water to the internal standard substance (ranitidine hydrochloride), dissolving it, and then diluting it with ultrapure water (10 ng/mL). The measurement specimen (microdialysis perfusate) was prepared by adding an acidic methanol solution (pH 4) in an amount five times the volume of the sample.
The measurement samples (the measurement specimen and the standard solution for the calibration curve) were deproteinized by adding a specimen treatment solution containing the internal standard solution to each sample. After centrifugation, the supernatant was filtered, and the 2ccPA concentration was measured using a Q Exactive Ultimate 3000 system (Thermo Scientific), thereby yielding the following results.

[5] = high dose (H) 1.8 mg/kg i.p. once daily for 24 weeks
[6] = low dose (L) 0.9 mg/kg i.p. once daily for 24 weeks

Compound	Weight loss after 24 weeks of daily administration [1]	Weight change (average) [1, 5]	Weight change (average) [1, 6]	Weight change [1, 5]	Weight change [1, 6]	Suppression of phosphorylation of tau protein [2]	Phosphorylated tau (Ser396) area/Hippocampus area (average) [2]	Phosphorylated tau (Ser404) area/Hippocampus area (average) [2]	Tau protein area/Hippocampus area (average) [2]	Phosphorylated tau (Ser396) area/Hippocampus area [2]	Phosphorylated tau (Ser404) area/Hippocampus area [2]	Tau protein area/Hippocampus area [2]	Memory improvement effect in the Morris water maze test [3]	further results
CCCCCCCCC=CCCCCCCCC(=O)OCC1COP(=O)(O)C1 (stereo not shown) [2ccPA, oleoyl-2-carba-cPA]	No weight loss was observed	32.1	32.3	30.6-32.8	31.4-33.6	significantly suppress the phosphorylation of tau protein	(2.3) %	(0.5) %	(17.4) %	2.0-4.9%	0.4-1.7%	7.7-19.5%	significantly improved memory; also recorded: significantly improve memory decline	Memory effect in the Morris water maze test at low dose ([3]; 0.9 mg/kg): memory maintenance effect comparable to that of the normal group; also recorded: clear effects; 2ccPA concentration in microdialysis recovery fluid ([4]; 0.5 hours after administration): 1.90 ng/mL; 2ccPA concentration in microdialysis recovery fluid ([4]; 1.0 hours after administration): 2.22 ng/mL; 2ccPA concentration in microdialysis recovery fluid ([4]; 1.5 hours after administration): 2.81 ng/mL; 2ccPA concentration in microdialysis recovery fluid ([4]; 2.0 hours after administration): 2.24 ng/mL; 2ccPA concentration in microdialysis recovery fluid ([4]; 2.5 hours after administration): 1.64 ng/mL; 2ccPA concentration in microdialysis recovery fluid ([4]; 3.0 hours after administration): 1.80 ng/mL; 2ccPA concentration in microdialysis recovery fluid ([4]; 3.5 hours after administration): 2.32 ng/mL; 2ccPA concentration in microdialysis recovery fluid ([4]; 4.0 hours after administration): 2.12 ng/mL; 2ccPA concentration in microdialysis recovery fluid ([4]; 4.5 hours after administration): 2.12 ng/mL; 2ccPA concentration in microdialysis recovery fluid ([4]; 5.0 hours after administration): 1.22 ng/mL; Crossing of the blood-brain barrier ([4]; mice, hippocampal microdialysis): passed through the barrier of endothelial cells that line the walls of brain capillaries; 2ccPA concentration in microdialysis recovery fluid ([4]; time 0 (before administration), C57BL/6J-Aged mice): 0 ng/mL
oleoyl-2-carba-LPA [2cLPA]	No weight loss was observed	30.2	32.0	29.6-31.9	30.8-33.3	significantly suppress the phosphorylation of tau protein	(2.4) %	(1.2) %	(19.0) %	0.5-4.7%	0.9-1.8%	10.6-36.2%	significantly improved memory; also recorded: significantly improve memory decline	Memory effect in the Morris water maze test at low dose [3]: clear effects
